Where two headings read alike, the source gives them in different places.
Columns and labels:
[1] = rats, oral; cited from earlier work
[2] = in vivo; details: Sprague Dawley, rat, iv
Experimental: (§2) In the second rat toxicity study, Charles River Study Number 20000328, CoQ10 was administered as short intravenous infusions at the rate of 1.0 mL/min three times a week for four weeks. For the toxicokinetic evaluation, three groups of nine male and nine females received 62.5, 125, and 250 mg/kg CoQ10 IV Formulation (Table 20). On Days 1 and 26, samples were collected from subgroups of three males and three females at 5 and 15 minutes, and at 1, 4, 24 and 48 hr post-dose.
(§3) 4-Week Repeat-Dose Toxicology Study of CoQ10 IV Formulation In Rats: Four groups of young adult Sprague Dawley rats (n=10/sex/group) received the vehicle (PBS containing Poloxamer 188 and DMPC) or the test article at doses of 0, 62.5, 125 and 250 mg/kg by IV injection three times per week (Charles River Laboratories Study Number 20000328; Table 26). An additional 5 rats/sex were included in each group and were maintained after treatment for a 2-week recovery period. […] The vehicle was administered at the same dose volume as the high-dose group. Additionally, three groups of 9 animals/sex served as toxicokinetic (TK) animals and received the test article in the same manner as the main study groups. […] Blood samples for determination of the plasma concentrations of the test article were collected from cohorts of three TK animals per sex per dose group at 5, 15 and 60 minutes and at 4, 24 and 48 hours after dosing on Days 1 and 28 (after the last dose).

[3] = Sprague Dawley, rat, in vivo, iv
Experimental: as §2, §3

[4] = test system: Sk-BR3; experiment: Effect on Bcl-2 family, p53 and caspases in breast cancer cells; format: cell-based; details: Sk-BR3, 50 and 100 μM
Experimental: (§1) Effect of CoQ10 on Breast Cancer: In another in vitro study, the effect of CoQ10 (50 and 100 μM) on various members of the Bcl-2 family (bcl-2, bcl-xl, bid, bad, bak, mcl-1, bim, and bax), p53, and caspases 4, 8, 12 in two breast cancer cell lines, MCF-7 and Sk-BR3, was evaluated. The Bcl-2 protein family has been implicated as the major contributing factor to conferral of resistance to cancer therapy.

[5] = test system: MCF-7; experiment: as above; format: cell-based; details: MCF-7, 50 and 100 μM
Experimental: as §1

Structure (SMILES): COC1=C(OC)C(=O)C(C/C=C(\C)CC/C=C(\C)CC/C=C(\C)CC/C=C(\C)CC/C=C(\C)CC/C=C(\C)CC/C=C(\C)CC/C=C(\C)CC/C=C(\C)CCC=C(C)C)=C(C)C1=O [CoQ10, Coenzyme Q10]
- orally-administered CoQ10 absorbed [1]: 2-3%
- AUC0-t ([2]; female, 62.5 mg/kg): 2690 µg·h/mL
- AUC0-t ([2]; female, 125 mg/kg): 5110 µg·h/mL
- AUC0-t ([2]; female, 250 mg/kg): 15500 µg·h/mL
- AUC0-t ([2]; male, 62.5 mg/kg): 3000 µg·h/mL
- AUC0-t ([2]; male, 125 mg/kg): 6870 µg·h/mL
- AUC0-t ([2]; male, 250 mg/kg): 16600 µg·h/mL
- AUC0-t ([3]; female, 62.5 mg/kg): 1747 µg·h/mL
- AUC0-t ([3]; female, 125 mg/kg): 3859 µg·h/mL
- AUC0-t ([3]; female, 250 mg/kg): 8368 µg·h/mL
- AUC0-t ([3]; male, 62.5 mg/kg): 1953 µg·h/mL
- AUC0-t ([3]; male, 125 mg/kg): 5037 µg·h/mL
- AUC0-t ([3]; male, 250 mg/kg): 8873 µg·h/mL
- apoptosis (activation of caspase 3, 6 and 9) [4]: increased apoptosis
- levels of the anti-apoptotic members (bcl-xl, mcl-1, bcl-2) [4]: significantly decreased
- protein expression of pro-apoptotic members and BH3 subfamily members (bid, bad, bax, bim, bak) [4]: upregulated
- apoptosis (activation of caspase 3, 6 and 9) [5]: increased apoptosis
- levels of the anti-apoptotic members (bcl-xl, mcl-1, bcl-2) [5]: significantly decreased
- protein expression of pro-apoptotic members and BH3 subfamily members (bid, bad, bax, bim, bak) [5]: upregulated

From US11400058B2, “Intravenous formulations of coenzyme Q10 (CoQ10) and methods of use thereof” (Berg LLC, priority 2010, dated 2022)
